Reference: patent publication US9528156B2, “Method for determining the predisposition of a patient to changed biotransformation and to the development of undesired drug effects in a treatment of the patient with atrovastatin” (Robert Bosch GmbH, priority 2009, dated 2016)

Tests used:
UGT1A1 = molecular target: T1, UGT1A1 (Homo sapiens, UniProt P22309); test: ATV lactonization by recombinant UGT1A1 (LC-MS); assay type: in vitro ADME; details: among various recombinant UGT enzymes; substrate 0.6 μM and 6 μM
T1 sequence (P22309 26-533): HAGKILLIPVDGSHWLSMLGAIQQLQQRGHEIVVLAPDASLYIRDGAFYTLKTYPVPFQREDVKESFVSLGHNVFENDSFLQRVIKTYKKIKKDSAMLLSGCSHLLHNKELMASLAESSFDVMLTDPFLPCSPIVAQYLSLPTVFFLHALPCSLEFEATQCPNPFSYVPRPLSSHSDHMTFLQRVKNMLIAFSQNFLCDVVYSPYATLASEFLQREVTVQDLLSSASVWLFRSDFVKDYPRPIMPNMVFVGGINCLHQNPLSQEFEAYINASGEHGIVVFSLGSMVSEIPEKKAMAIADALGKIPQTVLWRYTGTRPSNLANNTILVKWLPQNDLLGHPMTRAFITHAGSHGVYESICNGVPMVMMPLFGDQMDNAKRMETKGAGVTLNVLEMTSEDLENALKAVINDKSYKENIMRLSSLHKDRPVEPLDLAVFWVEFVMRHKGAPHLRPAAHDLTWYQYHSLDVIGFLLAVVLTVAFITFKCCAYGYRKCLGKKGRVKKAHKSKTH
Procedure: (§1) The reaction is started by addition of 10 mM UDP glucuronic acid, the cosubstrate of the UDP glucuronosyl transferases (UGT). The samples were incubated for 30 minutes. The reaction was stopped by addition of 25 μl of ice-cold 250 mM formic acid in acetonitrile and the vortexed samples were immediately placed on ice. […] The samples were centrifuged for 5 minutes at 13,000 rpm and placed in glass vessels for the LC/MS measurement.
(§2) The samples are separated on an XBridge Shield RP18 3.5 μm column with a C8 precolumn with a 1 mM formic acid and acetonitrile gradient for 23 minutes at 30° C. The masses are detected by HCT Esquire plus mass spectrometer, this being after electrospray ionization of the substances separated by the column.

recombinant UGT1A3 = molecular target: T2, recombinant UGT1A3 (Homo sapiens, UniProt P35503); details: among various recombinant UGT enzymes; substrate 0.6 μM and 6 μM
T2 sequence (P35503 29-534): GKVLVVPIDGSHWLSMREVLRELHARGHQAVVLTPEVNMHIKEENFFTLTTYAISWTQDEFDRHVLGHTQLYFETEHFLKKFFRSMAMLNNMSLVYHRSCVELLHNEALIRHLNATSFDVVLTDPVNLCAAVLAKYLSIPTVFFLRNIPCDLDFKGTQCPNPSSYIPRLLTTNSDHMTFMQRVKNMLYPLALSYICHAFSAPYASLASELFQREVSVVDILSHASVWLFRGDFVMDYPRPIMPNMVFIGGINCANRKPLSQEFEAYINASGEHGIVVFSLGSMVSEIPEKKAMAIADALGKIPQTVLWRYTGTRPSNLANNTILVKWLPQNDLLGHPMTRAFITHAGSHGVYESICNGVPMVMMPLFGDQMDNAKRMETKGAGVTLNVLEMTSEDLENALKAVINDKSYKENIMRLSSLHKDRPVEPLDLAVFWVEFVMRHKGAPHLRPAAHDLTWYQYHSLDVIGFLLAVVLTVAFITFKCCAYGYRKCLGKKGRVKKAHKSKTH
Procedure: as §1, §2

UGT1A3 = details: human liver microsomes, genotype-phenotype correlation
Procedure: as §1, §2

CC(C)c1c(C(=O)Nc2ccccc2)c(-c2ccccc2)c(-c2ccc(F)cc2)n1CC[C@@H](O)C[C@@H](O)CC(=O)O [atorvastatin] was tested, and the “activity for the catalysis of the ATV lactonization” value (UGT1A1) was “only low activity”, the “specific activity for the catalysis of the ATV lactonization” value (recombinant UGT1A3) was “highest specific activity” and the “activity for ATV lactonization in homozygotic UGT1A3*2 carriers compared to wild type samples” value (UGT1A3) was “increased twofold”.
